“And” between values parts separate entries of the source, which are not always exact repeats. Equal values may be shown once. Where a name gives a salt, the structure may show the parent alone. Read-outs that look alike come from different tables or passages of the source. Marks after values point to notes of the source that are not given here.
Columns and labels:
[1] = Acute toxicity, three daily IV bolus injections in mice (IPM lysine salt, IPM parent control); assay type: in vivo; conditions: for intravenous LD10 / intravenous LD50: IV daily × 3 days
Method: This example describes the evaluation of the acute toxicity of isophosphoramide mustard lysine salt, following three days of daily intravenous (bolus) injection in mice. This study consisted of two phases.
The second main study phase consisted of eight treatment groups (five mice/sex/group) that received the test article as a single daily dose for three consecutive days at respective dose levels of 50, 75, 100, 200, 300, 400, 500, and 600 mg/kg. An additional group (5 mice/sex) served as a parent compound control and received the isophosphoramide mustard parent compound in the same manner, at a dose level of 150 mg/kg. The vehicle was 0.9% sodium chloride for injection, USP and all doses were at a constant volume of 15 mL/kg.
Observations for mortality, morbidity, and the availability of food and water were conducted twice daily for all animals. Observations for clinical signs were conducted daily during the study (approximately one and four hours postdose on Days 1, 2, and 3, and once daily on non-dosing days). Body weights for all surviving animals were measured and recorded the second day after receipt, prior to randomization, and on Days-1 and 7. Body weights also were measured on all surviving main study phase animals on Day 14. Macroscopic evaluations were performed on each main study animal at necropsy (Day 15).
Eight main study treatment groups received the test article as a single daily dose for three consecutive days via intravenous (bolus) injection at respective dose levels of 50, 75, 100, 200, 300, 400, 500, and 600 mg/kg. An additional group (five mice/sex) served as a parent compound control and received the Isophosphoramide Mustard Parent Compound in the same manner at a dose level of 150 mg/kg. All doses were at a volume of 15 mL/kg and based on the most recent body weight.

[2] = tested on: advanced cancer; assay: Treatment of patients with advanced cancer with IPM.(LYS)2; assay type: in vivo, human
Method: One patient (cohort) was treated per dose escalation every 21-28 days to allow for toxicity presentation. Doses were escalated by 40% if there were no serious toxic events.

[3] = tested on: Lewis lung murine tumor; conditions: mouse, in vivo, ip
[4] = tested on: MX-1 Human Breast Tumor; conditions: mouse, in vivo, ip
[5] = Estimated comparable human intravenous dosages
[6] = tested on: L1210/0; assay type: in vivo, mice; conditions: mouse, in vivo
[7] = tested on: L1210/CPA; assay type: in vivo, mice; conditions: mouse, in vivo
[8] = tested on: Lewis Lung Carcinoma; parameters: species or system mice; conditions: mouse, in vivo
[9] = tested on: B16 Melanoma; parameters: species or system mice; conditions: mouse, in vivo
[10] = tested on: P388/0; assay type: in vivo, mice; conditions: mouse, in vivo
[11] = tested on: P388/CPA; assay type: in vivo, mice; conditions: mouse, in vivo
[12] = tested on: M5076 Sarcoma; assay: SC implanted M5076 sarcoma; assay type: in vivo, mice; conditions: days 11-15
[13] = tested on: 16/C Mammary Tumor; assay type: in vivo, mice; conditions: mouse, in vivo
[14] = tested on: human lox-IMVI melanoma; assay type: in vivo, mice; conditions: mouse, in vivo
[15] = tested on: human MX-1 mammary tumors; assay type: in vivo, mice; conditions: mouse, in vivo
[16] = Single dose oral toxicity of IPM in rats; assay type: in vivo; conditions: for oral LD50: single dose
[17] = Single dose oral toxicity of IPM in mice; assay type: in vivo
[18] = Single dose intravenous toxicity of IPM in rats; assay type: in vivo
[19] = Single dose intravenous toxicity of IPM in mice; assay type: in vivo
[20] = Sub-acute IV (3-day) toxicity of IPM in mice; assay type: in vivo; conditions: for dose with kidney tubular necrosis / dose with severe bone marrow depletion / intravenous LD10 / intravenous LD50: IV daily × 3 days
Source text: Multiple daily dose Administrations—IV and IP—have been studied in mice and dogs. Sub-acute intravenous (3-day) dosing in the mouse and dog has provided the toxicology/pharmacokinetic information regarding toxicities and drug disturbances that were utilized in designing the administration and dose schedules in humans.

[21] = estimated from mouse sub-acute IV LD10

In the case of `O=P(O)(NCCCl)NCCCl` [IPM lysine salt, isophosphoramide mustard lysine salt], the “Cumulative Mortality, female” value ([1]; 50 mg/kg IV daily × 3) is reported as 0/5, the “Cumulative Mortality, male” value ([1]; 50 mg/kg IV daily × 3) is reported as 0/5 and the “Cumulative Mortality, total” value ([1]; 50 mg/kg IV daily × 3) is reported as “No mice died”. For the same compound, the “Cumulative Mortality, total” value ([1]; 50 mg/kg IV daily × 3, listed as IPM Lysine Salt) was “No animals died and 0/10”, the “Cumulative Mortality, female” value ([1]; 75 mg/kg IV daily × 3) was 0/5 and the “Cumulative Mortality, male” value ([1]; 75 mg/kg IV daily × 3) was 0/5. The “Cumulative Mortality, total” value ([1]; 75 mg/kg IV daily × 3) was “No mice died”, the “Cumulative Mortality, total” value ([1]; 75 mg/kg IV daily × 3, listed as IPM Lysine Salt) was “No animals died and 0/10” and the “Cumulative Mortality, female” value ([1]; 100 mg/kg IV daily × 3) was 0/5. The “Cumulative Mortality, male” value ([1]; 100 mg/kg IV daily × 3) was 1/5, the “Cumulative Mortality, total” value ([1]; 100 mg/kg IV daily × 3) was 1 of 10 and the “Cumulative Mortality, total” value ([1]; 100 mg/kg IV daily × 3, listed as IPM Lysine Salt) was 1 of 10 and 1/10. For the same compound, the “Cumulative Mortality, female” value ([1]; 200 mg/kg IV daily × 3) was 3/5, the “Cumulative Mortality, male” value ([1]; 200 mg/kg IV daily × 3) was 0/5 and the “Cumulative Mortality, total” value ([1]; 200 mg/kg IV daily × 3) was “No mice died”. The “Cumulative Mortality, total” value ([1]; 200 mg/kg IV daily × 3, listed as IPM Lysine Salt) was 3 of 10 and 3/10, the “Cumulative Mortality, female” value ([1]; 300 mg/kg IV daily × 3) was 5/5 and the “Cumulative Mortality, male” value ([1]; 300 mg/kg IV daily × 3) was 4/5. For the same compound, the “Cumulative Mortality, total” value ([1]; 300 mg/kg IV daily × 3) was 9 out of 10, the “Cumulative Mortality, total” value ([1]; 300 mg/kg IV daily × 3, listed as IPM Lysine Salt) was 9 of 10 and 9/10 and the “Cumulative Mortality, female” value ([1]; 400 mg/kg IV daily × 3) was 5/5. The “Cumulative Mortality, male” value ([1]; 400 mg/kg IV daily × 3) was 5/5, the “Cumulative Mortality, total” value ([1]; 400 mg/kg IV daily × 3) was “all mice died” and the “Cumulative Mortality, total” value ([1]; 400 mg/kg IV daily × 3, listed as IPM Lysine Salt) was “all animals died and 10/10”. The “Cumulative Mortality, female” value ([1]; 500 mg/kg IV daily × 3) was 5/5, the “Cumulative Mortality, male” value ([1]; 500 mg/kg IV daily × 3) was 5/5 and the “Cumulative Mortality, total” value ([1]; 500 mg/kg IV daily × 3) was “all mice died”. The “Cumulative Mortality, total” value ([1]; 500 mg/kg IV daily × 3, listed as IPM Lysine Salt) was “all animals died and 10/10”, the “Cumulative Mortality, female” value ([1]; 600 mg/kg IV daily × 3) was 5/5 and the “Cumulative Mortality, male” value ([1]; 600 mg/kg IV daily × 3) was 5/5. The “Cumulative Mortality, total” value ([1]; 600 mg/kg IV daily × 3) was “all mice died”, the “Cumulative Mortality, total” value ([1]; 600 mg/kg IV daily × 3, listed as IPM Lysine Salt) was “all animals died and 10/10” and the “Sub-acute IV LD10” value ([1]; Mouse) was 133 mg/kg/day. The “intravenous LD10” value ([1]; female mice) was 179 mg/kg, the “intravenous LD50” value ([1]; female mice) was 197 mg/kg and the “macroscopic findings at necropsy” value ([1]; main study, Day 15) was “No treatment-related macroscopic findings”. For the same compound, the “intravenous LD10” value ([1]; male mice) was 140 mg/kg, the “intravenous LD50” value ([1]; male mice) was 247 mg/kg and the “intravenous LD10” value ([1]; mice, combined sexes) was 133 mg/kg. The “intravenous LD50” value ([1]; mice, combined sexes) was 220 mg/kg, the “LD10, intravenous three day dose schedule” value ([1]; mouse, × 3 days) was 133 mg/kg/day and the “serious toxicity in patients” value ([2]; 30, 42, 59 and 83 mg/m^2 daily IV for 3 days, one patient each) was “without serious toxicity”. The disease response ([2]; one patient with rectal cancer, 83 mg/m^2 daily IV for 3 days) was “stabilization of their disease”, the “MTD Dosage” value [3] was 93.2 mg/kg/dose and the T-C [3] was 8.3* days. The “increase of the MTD (mg/kg/dose) of the salt over parent drug” value [3] was 2 fold, the “MTD Dosage” value [4] was 93.2 mg/kg/dose and the T-C [4] was 10.2* days. The “superiority to IPM at comparable dosing” value [4] was 8 fold, the “estimated MTD in humans (1/10 the LD10 in mice)” value [5] was 40 mg/m^2/d and the “Comparable Human IV Dosage” value [5, 21] was 40 mg/m^2/d.

In the case of `O=P(O)(NCCCl)NCCCl` [IPM, isophosphoramide mustard], the “% ILS (dying mice only)” value [6] is reported as “+128%”, the “Day 60 survivors/total” value [6] is reported as 0/10 and the “Net log10 reduction in tumor burden after therapy” value (“Net log10 reduction” for short) [6] is reported as 8. The “% ILS (dying mice only)” value [7] was “+114%”, the “Day 60 survivors/total” value [7] was 1/10 and the “Net log10 reduction” value [7] was 7. For the same compound, the “% ILS” value [8] was 34%, the Log kill total [8] was >2.1 and the “T-C (tumor growth delay)” value [8] was 8.4 days. For the same compound, the Tumor-free survivors [8] was 6/10, the “% ILS” value [9] was 34% and the “Inhibition of B16 melanoma growth compared with CPA and Ifos” value [9] was “slightly inferior to CPA but better than Ifos”. For the same compound, the T-C [9] was 8.4 days, the Tumor-free survivors [9] was 6/10 and the “Day 60 survivors/total” value [10] was 0/9 and 1/10. For the same compound, the “Day 60 survivors/total” value [11] was 0/10, the “Net log10 reduction” value [11] was 7 and the “Days Delay (T-C)” value ([12]; 18 mg/kg IP daily) was 1 days. The “Days To 2 doublings” value ([12]; 18 mg/kg IP daily) was 10.3 days, the “Days Delay (T-C)” value ([12]; 27 mg/kg IP daily) was 3.3 days and the “Days To 2 doublings” value ([12]; 27 mg/kg IP daily) was 12.6 days. The “Days Delay (T-C)” value ([12]; 40 mg/kg IP daily) was 6.1 days, the “Days To 2 doublings” value ([12]; 40 mg/kg IP daily) was 15.4 days and the “Days Delay (T-C)” value [13] was 6.3 days and 5.2 days and 4.2 days. For the same compound, the “Days to 2 Doublings” value [13] was 9.5 days and 8.5 days and 7.4 days, the “% ILS” value [14] was “+52%” and the “Median Day of Death” value [14] was 29.0. The “Days to 2 Doublings” value [15] was 26.5 days and 14.2 days, the “Cumulative Mortality, female” value ([1]; 150 mg/kg IV daily × 3) was 4/5 and the “Cumulative Mortality, male” value ([1]; 150 mg/kg IV daily × 3) was 1/5. For the same compound, the “Cumulative Mortality, total” value ([1]; 150 mg/kg IV daily × 3, listed as IPM parent compound) was 5 of 10 and 5/10, the “oral LD50” value ([16]; female rats) was 2786 mg/kg and the “oral LD50” value ([16]; male rats) was 4443 mg/kg. The “oral LD50 range” value ([16]; oral, range over mice and rats) was 1400 to 3500 mg/kg, the “oral LD50” value ([16]; rats, both sexes combined) was 3560 mg/kg and the “oral LD50” value ([17]; female mice) was 1962 mg/kg. For the same compound, the “oral LD50” value ([17]; male mice) was 1014 mg/kg, the “oral LD50” value ([17]; mice, both sexes combined) was 1432 mg/kg and the “single dose intravenous LD50” value ([18]; female rats) was 400 mg/kg. For the same compound, the “single dose intravenous LD50” value ([18]; male rats) was 567 mg/kg, the “single dose intravenous LD50” value ([19]; female mice) was 484 mg/kg and the “single dose intravenous LD50” value ([19]; male mice) was 929 mg/kg. For the same compound, the treatment-related microscopic findings ([20]; 75 mg/kg, either sex) was “No obvious treatment-related microscopic findings”, the “Sub-acute IV LD10” value ([20]; Mouse) was 119 mg/kg/day and the “dose with kidney tubular necrosis” value ([20]; female mice) was ≥ 133 mg/kg. For the same compound, the “dose with severe bone marrow depletion” value ([20]; female mice) was ≥ 133 mg/kg, the “intravenous LD10” value ([20]; female mice) was 125 mg/kg and the intravenous LD50 ([20]; female mice) was 132 mg/kg. The “dose with kidney tubular necrosis” value ([20]; male mice) was ≥ 237 mg/kg, the “dose with severe bone marrow depletion” value ([20]; male mice) was ≥ 178 mg/kg and the “intravenous LD10” value ([20]; male mice) was 168 mg/kg. The intravenous LD50 ([20]; male mice) was 176 mg/kg, the “intravenous LD10” value ([20]; mice, combined sexes) was 119 mg/kg and the “MTD Dosage” value [3] was 40.0 mg/kg/dose. The T-C [3] was 12.5* days, the “MTD Dosage” value [4] was 40.0 mg/kg/dose and the T-C [4] was 2.1* days. The “Sub-acute IV LD10” value (Dog) was 5 mg/kg/day, the survival (dog, in vivo) was “(100% survival)” and the MTD (dog, in vivo, iv) was 5 mg/kg/day. The “Comparable Human IV Dosage” value ([5]; estimated from dog sub-acute IV value) was 100 mg/m^2/d, the “Comparable Human IV Dosage” value [5, 21] was 30 mg/m^2/d and the “corresponding safe starting dose in humans” value ([5]; for three days, from dog MTD) was 100 mg/m^2 per day.
